Assay results: ChEMBL document CHEMBL1148998, “Limonoids from the seeds of Melia azedarach” (1986)

Columns and labels:
[1] = test system: Vibrio cholerae; assay: Antibacterial activity against Vibrio cholerae at 10 mg/10 ml dimethylformamide; format: functional
[2] = test system: Klebsiella pneumoniae; assay: Antibacterial activity against Klebsiella pneumoniae at 10 mg/10 ml dimethylformamide; format: functional
[3] = test system: Salmonella typhimurium; assay: Antibacterial activity against Salmonella Typhimurium at 10 mg/10 ml dimethylformamide; format: functional, Salmonella enterica subsp. enterica serovar Typhimurium
[4] = test system: Escherichia coli; assay: Antibacterial activity against Escherichia coli at 10 mg/10 ml dimethylformamide; format: functional
[5] = test system: Vibrio cholerae; assay: Antibacterial activity against Vibrio cholerae at 8 mg/10 ml dimethylformamide; format: functional
[6] = test system: Vibrio cholerae; assay: Antibacterial activity against Vibrio cholerae at 6 mg/10 ml dimethylformamide; format: functional
[7] = test system: Vibrio cholerae; assay: Antibacterial activity against Vibrio cholerae at 4 mg/10 ml dimethylformamide; format: functional
[8] = test system: Vibrio cholerae; assay: Antibacterial activity against Vibrio cholerae at 2 mg/10 ml dimethylformamide; format: functional
[9] = test system: Klebsiella pneumoniae; assay: Antibacterial activity against Klebsiella pneumoniae at 8 mg/10 ml dimethylformamide; format: functional
[10] = test system: Klebsiella pneumoniae; assay: Antibacterial activity against Klebsiella pneumoniae at 6 mg/10 ml dimethylformamide; format: functional
[11] = test system: Klebsiella pneumoniae; assay: Antibacterial activity against Klebsiella pneumoniae at 4 mg/10 ml dimethylformamide; format: functional
[12] = test system: Klebsiella pneumoniae; assay: Antibacterial activity against Klebsiella pneumoniae at 2 mg/10 ml dimethylformamide; format: functional
[13] = test system: Salmonella typhimurium; assay: Antibacterial activity against Salmonella Typhimurium at 8 mg/10 ml dimethylformamide; format: functional, Salmonella enterica subsp. enterica serovar Typhimurium
[14] = test system: Salmonella typhimurium; assay: Antibacterial activity against Salmonella Typhimurium at 6 mg/10 ml dimethylformamide; format: functional, Salmonella enterica subsp. enterica serovar Typhimurium
[15] = test system: Salmonella typhimurium; assay: Antibacterial activity against Salmonella Typhimurium at 4 mg/10 ml dimethylformamide; format: functional, Salmonella enterica subsp. enterica serovar Typhimurium
[16] = test system: Salmonella typhimurium; assay: Antibacterial activity against Salmonella Typhimurium at 2 mg/10 ml dimethylformamide; format: functional, Salmonella enterica subsp. enterica serovar Typhimurium
[17] = test system: Escherichia coli; assay: Antibacterial activity against Escherichia coli at 8 mg/10 ml dimethylformamide; format: functional
[18] = test system: Escherichia coli; assay: Antibacterial activity against Escherichia coli at 6 mg/10 ml dimethylformamide; format: functional
[19] = test system: Escherichia coli; assay: Antibacterial activity against Escherichia coli at 4 mg/10 ml dimethylformamide; format: functional
[20] = test system: Escherichia coli; assay: Antibacterial activity against Escherichia coli at 2 mg/10 ml dimethylformamide; format: functional

Row | SMILES | inhibition zone (IZ) [1] | inhibition zone (IZ) [2] | inhibition zone (IZ) [3] | inhibition zone (IZ) [4] | inhibition zone (IZ) [5] | inhibition zone (IZ) [6] | inhibition zone (IZ) [7] | inhibition zone (IZ) [8] | inhibition zone (IZ) [9] | inhibition zone (IZ) [10] | inhibition zone (IZ) [11] | inhibition zone (IZ) [12] | inhibition zone (IZ) [13] | inhibition zone (IZ) [14] | inhibition zone (IZ) [15] | inhibition zone (IZ) [16] | inhibition zone (IZ) [17] | inhibition zone (IZ) [18] | inhibition zone (IZ) [19] | inhibition zone (IZ) [20]
1 | CN[C@@H]1[C@H](O[C@H]2[C@H](O[C@H]3[C@H](O)[C@@H](O)[C@H](N=C(N)N)[C@@H](O)[C@@H]3N=C(N)N)O[C@@H](C)[C@]2(O)C=O)O[C@@H](CO)[C@H](O)[C@H]1O [STREPTOMYCIN] | 12 mm | 10 mm | 9 mm | 8 mm |  |  |  |  |  |  |  |  |  |  |  |  |  |  |  | 
2 | CC(=O)OC1=C2C(C)(C)[C@@H](O[C@@H]3O[C@@H](C)[C@H](O)[C@@H](O)[C@H]3O)C=C[C@]2(C)[C@H]2[C@H](O)C[C@@]3(C)[C@H](c4ccoc4)C[C@H]4O[C@]43[C@]2(C)C1=O | 20 mm | 18 mm | 16 mm | 15 mm | 18 mm | 17 mm | 15 mm | 13 mm | 16 mm | 14 mm | 12 mm | 10 mm | 15 mm | 13 mm | 12 mm | 11 mm | 14 mm | 12 mm | 11 mm | 10 mm
